{"source": "patent US12691101B2", "about": "“Compound and method for preventing or treating of respiratory diseases comprising the same as an active ingredient” (YONSEI UNIVERSITY, UNIVERSITY - INDUSTRY FOUNDATION (UIF), priority 2019, dated 2026)", "data": [{"biological_target": "T1, human wild-type (WT)-pendrin (Homo sapiens, UniProt O43511)", "T1 construct": "expressed in transfected cells", "T1 sequence (O43511 1-780)": "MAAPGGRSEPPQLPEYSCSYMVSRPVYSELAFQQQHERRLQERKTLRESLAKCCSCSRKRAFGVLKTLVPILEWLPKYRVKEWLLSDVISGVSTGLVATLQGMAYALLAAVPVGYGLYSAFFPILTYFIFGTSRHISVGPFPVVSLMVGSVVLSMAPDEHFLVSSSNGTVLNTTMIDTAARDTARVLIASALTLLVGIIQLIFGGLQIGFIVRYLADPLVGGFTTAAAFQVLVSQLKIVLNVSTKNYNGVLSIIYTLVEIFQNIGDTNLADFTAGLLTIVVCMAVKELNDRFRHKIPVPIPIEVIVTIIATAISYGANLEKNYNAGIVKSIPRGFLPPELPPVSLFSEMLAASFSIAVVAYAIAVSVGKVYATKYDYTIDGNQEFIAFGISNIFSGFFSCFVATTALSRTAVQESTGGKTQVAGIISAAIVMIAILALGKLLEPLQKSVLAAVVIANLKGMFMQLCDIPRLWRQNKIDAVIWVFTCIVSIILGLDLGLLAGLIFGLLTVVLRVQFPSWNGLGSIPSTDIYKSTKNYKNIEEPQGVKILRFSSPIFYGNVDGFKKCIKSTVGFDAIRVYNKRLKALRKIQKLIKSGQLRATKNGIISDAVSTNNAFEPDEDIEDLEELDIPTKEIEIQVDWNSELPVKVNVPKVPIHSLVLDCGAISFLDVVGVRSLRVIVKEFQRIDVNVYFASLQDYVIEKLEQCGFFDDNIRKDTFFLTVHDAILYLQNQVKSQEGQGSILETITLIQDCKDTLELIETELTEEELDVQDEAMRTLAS", "test": "Pendrin-mediated Cl^−/I^− exchange activity, YFP fluorescence in CHO-K1 cells", "type": "cell-based", "conditions": "CHO-K1, 30 μM; read-out: Pendrin inhibitory activity at 30 μM (%)", "description": "(§1) Chinese hamster ovary (CHO)-K1 cells were maintained in a DMEM medium containing 10% fetal bovine serum (FBS), 100 units/ml penicillin and 100 100 μg/ml streptomycin. CHO-K1 cells were stably transfected with pcDNA3.1 encoding halide sensor YFP-H148Q/I152L/F46L and human wild-type (WT)-pendrin. For distribution of primary culture of human nasal cavity epithelium (HNE) cells, passage-2 cells were seeded into transwell-transparent culture inserts with a pore size of 0.45 μm (Costar Co., Cambridge, MA) at a density of 2×10^5 cells/cm^2. The cells were maintained in a 1:1 mixture of Dulbecco's modified Eagle's medium (Lonza, Walkersville, MD) and bronchial epithelial growth medium (Lonza) supplemented with the following growth factors according to the manufacturer's instructions. After immersing the cells for the first 7 days, they were exposed to the apical air interface for the remainder of the culture period. After establishment of the air-liquid interface, the cells were used between 14 and 21 days. At all stages of culture, the cells were maintained at 37° C. under 5% CO2 in an air incubator.\n(§2) CHO-K1 cells expressing human WT pendrin and YFP-F46L/H148Q/I152L were plated on a 96-well microplate at a density of 2×10^4 cells per well and cultured for 48 hours. Each well of the cell cultured 96-well plate was washed with PBS of 200 μL twice and was filled with HEPES buffer solution of 50 μL, respectively. […] After culturing at 37° C. for 10 minutes, the 96-well plate was positioned on FLUOstar Omega microplate reader (BMG Labtech, Ortenberg, Germany) for fluorescence analysis. By continuously (400 ms per point) recording fluorescence for 1 second (base line), each well was individually analyzed for pendrin-mediated I^− inflow, and then at 1 second, 50 μL of NaI-substituted HEPES buffer solution (NaI replacing NaCl) was added using a liquid injector and the YFP fluorescence was recorded for 5 seconds. The initial iodide inflow rate was determined from the initial slope of fluorescence by nonlinear regression, after injection the iodide (See FIG. 1).\n(§3) For measurement of Cl^−/I^− exchange activity, YFP fluorescence was measured in pendrin and halide sensor YFP expressing CHO-K1 cells. Each well of the cell cultured 96-well plate was washed with PBS of 200 μL twice, and was filled with HEPES buffer solution (140 mM NaCl, 5 mM KCl, 1 mM MgCl2, 1 mM CaCl2, 10 mM glucose and 10 mM HEPES (pH 7.4)), respectively. […] After culturing at 37° C. for 10 minutes, the 96-well plate was positioned on FLUOstar Omega microplate reader (BMG Labtech, Ortenberg, Germany) for fluorescence analysis.\n(§4) By continuously (400 ms per point) recording fluorescence for 1 second (base line), each well was individually analyzed for pendrin-mediated I^− inflow, and then at 1 second, 50 μL of NaI-substituted HEPES buffer solution (140 mM NaI, 5 mM KCl, 1 mM MgCl2, 1 mM CaCl2, 10 mM glucose and 10 mM HEPES (pH 7.4)) was added using a liquid injector and the YFP fluorescence was recorded for 5 seconds. The initial iodide inflow rate was determined from the initial slope of fluorescence by nonlinear regression, after injection the iodide.", "units": {"inhibition at 30 µM": "%"}, "values": [{"molecule": "C=CCOc1cc(N(CC)CC)ccc1C=C1N=C(c2ccc(NC(=O)c3cncc(Br)c3)cc2)OC1=O", "note": "[F66, N-(4-(4-(2-(Allyloxy)-4-(diethylamino)benzylidene)-5-oxo-4,5-dihydrooxazol-2-yl)phenyl)-5-bromonicotinamide]", "inhibition at 30 µM": 2.3}, {"molecule": "CC(C)(C)c1ccc(C(=O)Oc2ccc(C=C3N=C(c4ccccc4Cl)OC3=O)cc2)cc1", "note": "[F67, 4-((2-(2-Chlorophenyl)-5-oxooxazol-4(5H)-ylidene)methyl)phenyl4-(tert-butyl)benzoate]", "inhibition at 30 µM": 3.2}, {"molecule": "CCC(/C=C1\\Sc2ccc(OC)cc2N1CC)=C1N=C(c2ccccc2)OC1=O", "note": "[F68, 4-((Z)-1-(3-ethyl-5-methoxybenzo[d]thiazol-2(3H)-ylidene)butan-2-ylidene)-2-phenyloxazol-5(4H)-one]", "inhibition at 30 µM": 4.3}, {"molecule": "CCOc1cc(C=C2N=C(c3ccc(NC(C)=O)cc3)OC2=O)ccc1OC(=O)c1cccs1", "note": "[F69, 4-((2-(4-Acetamidophenyl)-5-oxooxazol-4(5H)-ylidene)methyl)-2-ethoxyphenylthiophene-2-carboxylate]", "inhibition at 30 µM": 3.8}, {"molecule": "CCOc1ccc2nc(Sc3ccccc3)c(C=C3N=C(c4ccccc4)OC3=O)cc2c1", "note": "[F70, 4-((6-Ethoxy-2-(phenylthio)quinolin-3-yl)methylene)-2-phenyloxazol-5(4H)-one]", "inhibition at 30 µM": 3.1}, {"molecule": "Cc1nn(-c2ccccc2)c(Cl)c1C=C1N=C(c2cccc(Br)c2)OC1=O", "note": "[F71, 2-(3-Bromophenyl)-4-((5-chloro-3-methyl-1-phenyl-1H-pyrazol-4-yl)methylene)oxazol-5(4H)-one]", "inhibition at 30 µM": 4.4}, {"molecule": "CC(=O)n1cc(C=C2N=C(c3ccc(Br)cc3)OC2=O)c2ccccc21", "note": "[F72, 4-((1-Acetyl-1H-indol-3-yl)methylene)-2-(4-bromophenyl)oxazol-5(4H)-one]", "inhibition at 30 µM": 2.8}, {"molecule": "CC(C)(C)c1ccc(C2=NC(=Cc3ccc(-c4cccc(C(F)(F)F)c4)o3)C(=O)O2)cc1", "note": "[F73, 2-(4-(tert-butyl)phenyl)-4-((5-(3-(trifluoromethyl)phenyl)furan-2-yl)methylene)oxazol-5(4H)-one]", "inhibition at 30 µM": 2.9}, {"molecule": "COc1ccc2cc(C=C3N=C(c4ccccc4)OC3=O)c(=O)[nH]c2c1", "note": "[F74, 4-((7-Methoxy-2-oxo-1,2-dihydroquinolin-3-yl)methylene)-2-phenyloxazol-5(4H)-one]", "inhibition at 30 µM": 2.4}, {"molecule": "COc1ccc(C2=NC(=C3C=C(c4cccs4)Oc4ccccc43)C(=O)O2)cc1", "note": "[F75, 2-(4-Methoxyphenyl)-4-(2-(thiophen-2-yl)-4H-chromen-4-ylidene)oxazol-5 (4H)-one]", "inhibition at 30 µM": 2.3}, {"molecule": "Cc1ccc(C2=NC(=Cc3cn(S(=O)(=O)N(C)C)c4ccccc34)C(=O)O2)cc1", "note": "[F76, N,N-Dimethyl-3-((5-oxo-2-(p-tolyl)oxazol-4(5H)-ylidene)methyl)-1H-indole-1-sulfonamide]", "inhibition at 30 µM": 1.9}, {"molecule": "CC(=O)Nc1ccc(S(=O)(=O)Oc2ccccc2C=C2N=C(c3ccc(Cl)cc3)OC2=O)cc1", "note": "[F77, 2-((2-(4-Chlorophenyl)-5-oxooxazol-4(5H)-ylidene)methyl)phenyl4-acetamido benzenesulfonate]", "inhibition at 30 µM": 2.6}, {"molecule": "O=C1OC(c2ccccc2)=NC1=Cc1ccc(OC(=O)c2ccco2)cc1", "note": "[F78, 4-((5-oxo-2-phenyloxazol-4(5H)-ylidene)methyl)phenylfuran-2-carboxylate]", "inhibition at 30 µM": 1.7}, {"molecule": "Cc1ccc(/C=C2\\N=C(c3ccc(C4=N/C(=C\\c5ccc(C)o5)C(=O)O4)cc3)OC2=O)o1", "note": "[F79, 2,2′-(1,4-phenylene)bis(4-((5-methylfuran-2-yl)methylene)oxazol-5(4H)-one)]", "inhibition at 30 µM": 3.2}, {"molecule": "CC(C)(C)c1ccc(C2=NC(=Cc3ccccc3OS(=O)(=O)c3ccccc3)C(=O)O2)cc1", "note": "[F80, 2-((2-(4-(tert-butyl)phenyl)-5-oxooxazol-4(5H)-ylidene)methyl)phenylbenznesulfonate]", "inhibition at 30 µM": 1.9}, {"molecule": "CC(=O)n1cc(C=C2N=C(c3ccc(C(C)(C)C)cc3)OC2=O)c2ccccc21", "note": "[F81, 4-((1-Acetyl-1H-indol-3-yl)methylene)-2-(4-(tert-butyl)phenyl)oxazol-5 (4H)-one]", "inhibition at 30 µM": 3.4}, {"molecule": "CC(=O)n1cc(C=C2N=C(c3ccc(C(C)(C)C)cc3)OC2=O)c(-c2ccccc2)n1", "note": "[F82, 4-((1-Acetyl-3-phenyl-1H-pyrazol-4-yl)methylene)-2-(4-(tert-butyl)phenyl)oxazol-5 (4H)-one]", "inhibition at 30 µM": 2.7}, {"molecule": "Cc1ccc(C2=NC(=Cc3cn(-c4ccccc4)nc3-c3ccccc3)C(=O)O2)cc1", "note": "[F83, 4-((1,3-Diphenyl-1H-pyrazol-4-yl)methylene)-2-(p-tolyl)oxazol-5(4H)-one]", "inhibition at 30 µM": 2.4}, {"molecule": "COc1ccc2[nH]c(=O)c(C=C3N=C(c4ccccc4)OC3=O)cc2c1", "note": "[F84, 4-((6-Methoxy-2-oxo-1,2-dihydroquinolin-3-yl)methylene)-2-phenyloxazol-5(4H)-one]", "inhibition at 30 µM": 3.4}, {"molecule": "O=C1OC(c2ccccc2)=NC1=C1C=C(c2ccccc2)SC(c2ccccc2)=C1", "note": "[F85, 4-(2,6-Diphenyl-4H-thiopyran-4-ylidene)-2-phenyloxazol-5(4H)-one]", "inhibition at 30 µM": 2.9}, {"molecule": "COc1ccc(C2=NC(=Cc3cccs3)C(=O)O2)cc1", "note": "[F87, 2-(4-Methoxyphenyl)-4-(thiophen-2-ylmethylene)oxazol-5 (4H)-one]", "inhibition at 30 µM": 3.6}, {"molecule": "O=C1OC(c2ccc(Cl)cc2)=NC1=Cc1cccs1", "note": "[F88, 2-(4-Chlorophenyl)-4-(thiophen-2-ylmethylene)oxazol-5(4H)-one]", "inhibition at 30 µM": 2.4}, {"molecule": "O=C1OC(c2cccs2)=NC1=Cc1cccs1", "note": "[F89, 2-(Thiophen-2-yl)-4-(thiophen-2-ylmethylene)oxazol-5(4H)-one]", "inhibition at 30 µM": 2.8}, {"molecule": "CC(=O)Oc1ccc(C2=NC(=Cc3cccs3)C(=O)O2)cc1", "note": "[F90, 4-(5-Oxo-4-(thiophen-2-ylmethylene)-4,5-dihydrooxazol-2-yl)phenylacetate]", "inhibition at 30 µM": 3.3}, {"molecule": "O=C1OC(c2ccc(Cl)c([N+](=O)[O-])c2)=NC1=Cc1cccs1", "note": "[F91, 2-(4-Chloro-3-nitrophenyl)-4-(thiophen-2-ylmethylene)oxazol-5(4H)-one]", "inhibition at 30 µM": 3.9}, {"molecule": "O=C1OC(c2ccccc2Cl)=NC1=Cc1cccs1", "note": "[F92, 2-(2-Chlorophenyl)-4-(thiophen-2-ylmethylene)oxazol-5(4H)-one]", "inhibition at 30 µM": 2.2}, {"molecule": "O=C1OC(c2ccc([N+](=O)[O-])cc2Cl)=NC1=Cc1cccs1", "note": "[F93, 2-(2-Chloro-4-nitrophenyl)-4-(thiophen-2-ylmethylene)oxazol-5(4H)-one]", "inhibition at 30 µM": 2.5}, {"molecule": "COc1cc(C2=NC(=Cc3cccs3)C(=O)O2)cc(OC)c1OC", "note": "[F94, 4-(Thiophen-2-ylmethylene)-2-(3,4,5-trimethoxyphenyl)oxazol-5(4H)-one]", "inhibition at 30 µM": 1.9}]}, {"biological_target": "T1, human wild-type (WT)-pendrin", "test": "Pendrin-mediated Cl^−/I^− exchange activity, YFP fluorescence in CHO-K1 cells", "type": "cell-based", "conditions": "CHO-K1; read-out: Pendrin inhibitory activity at 30 μM (%)", "description": "as §1, §2, §3, §4", "units": {"inhibition at 30 µM": "%"}, "values": [{"molecule": "CC(=O)Nc1ccc(C2=NC(=Cc3ccc(N(C)CCCl)cc3)C(=O)O2)cc1", "note": "[F86, N-(4-(4-(4-((2-chloroethyl)(methyl)amino)benzylidene)-5-oxo-4,5-dihydrooxazol-2-yl)phenyl)acetamide]", "inhibition at 30 µM": 3.3}]}]}
